Measured values reported in paper PMC9298630 (Journal of Food and Drug Analysis, 2018).
Where two headings read alike, the source gives them in different places.

Legend:
[1] = S. Chinese remedy-treated rats; cited from earlier work
[2] = tested on: rat liver microsomal NFO activity (CYP3A); assay: Inhibition of rat liver microsomal nifedipine oxidation; format: in vitro ADME; settings: 100 μM, 10-min NADPH-fortified pre-incubation
[3] = cited from earlier work
[4] = Stability of analytes in stored plasma samples; settings: −80 °C, rat plasma
[5] = for AUC0–t / AUC0–∞ / CL/F (apparent clearance) / Cmax / Tmax / Vd/F / t1/2: rats, mean ± SEM
[6] = oral suspension (40 mg/ml), 7 days, participants; cited from earlier work
[7] = oral nifedipine 3 mg/kg 1 h after SY 0.95 g/kg
[8] = oral nifedipine 3 mg/kg 1 h after SY […]
[9] = oral nifedipine 3 mg/kg together with ketoconazole 30 mg/kg
[10] = oral nifedipine 3 mg/kg, control

COc1cc2c(c(OC)c1OC)-c1c(cc3c(c1OC)OCO3)CC(C)C(C)C2 (stereo not drawn) [schisandrin B]
Tmax [1]: about 4 h

COc1cc2c(c(OC)c1OC)-c1c(cc(OC)c(OC)c1OC)C[C@H](C)[C@H](C)C2 [schisandrin A]
decrease of NFO activity [2]: 48%

COC(=O)c1c(C)nc(C)c(C(=O)OC)c1-c1ccccc1[N+](=O)[O-] [Dehydronifedipine, dehydronifedipine]
AUC ratio of the dehydronifedipine to nifedipine ([3]; rats treated with nifedipine suspension (in water)): 38% | half-life (terminal) ([3]; rats, nifedipine suspended in water (10 mg/ml), oral dose 10 mg/kg): 15.7 h | AUC0–t ratio of dehydronifedipine to nifedipine ([3]; rats, ref 6 (Han et al.)): 2.7 ± 0.3% | 14-day stability in plasma samples [4]: 99.6–100.8% | AUC0–t ratio of dehydronifedipine to nifedipine ([5]; control rats, oral nifedipine 3 mg/kg in 50% PEG 400): 2.7 ± 0.5% | AUC0–t [5, 7]: 0.11 ± 0.01 µg·h/mL | AUC0–∞ [5, 7]: 0.13 ± 0.02 µg·h/mL | CL/F (apparent clearance) [5, 7]: 405 ± 53.3 mL/min/kg | Cmax [5, 7]: 50 ± 10 ng/mL | Tmax [5, 7]: 0.29 ± 0.05 h | Vd/F [5, 7]: 61.0 ± 13.3 L/kg | t1/2 [5, 7]: 1.9 ± 0.5 h | AUC0–t [5, 8]: 0.13 ± 0.02 µg·h/mL | AUC0–∞ [5, 8]: 0.24 ± 0.04 µg·h/mL | CL/F (apparent clearance) [5, 8]: 253 ± 55 mL/min/kg | Cmax [5, 8]: 40 ± 0 ng/mL | Tmax [5, 8]: 0.58 ± 0.08 h | Vd/F [5, 8]: 89.7 ± 14.4 L/kg | t1/2 [5, 8]: 4.8 ± 0.8 h | AUC0–t [5, 9]: 0.46 ± 0.11 ^* h·μg/ml | AUC0–∞ [5, 9]: 1.77 ± 0.53 ^* h·μg/ml | CL/F (apparent clearance) [5, 9]: 43.3 ± 16.7 mL/min/kg | Cmax [5, 9]: 100 ± 20 ng/mL | Tmax [5, 9]: 1.80 ± 0.55 h | Vd/F [5, 9]: 34.3 ± 7.4 L/kg | t1/2 [5, 9]: 12.3 ± 3.9 h | AUC0–t [5, 10]: 0.12 ± 0.02 µg·h/mL | AUC0–∞ [5, 10]: 0.14 ± 0.02 µg·h/mL | CL/F (apparent clearance) [5, 10]: 395 ± 48.3 mL/min/kg | Cmax [5, 10]: 40 ± 10 ng/mL | Tmax [5, 10]: 0.70 ± 0.12 h | Vd/F [5, 10]: 68.9 ± 9.0 L/kg | t1/2 [5, 10]: 2.0 ± 0.1 h

CC[C@@H]([C@H](C)O)n1ncn(-c2ccc(N3CCN(c4ccc(OC[C@@H]5CO[C@@](Cn6cncn6)(c6ccc(F)cc6F)C5)cc4)CC3)cc2)c1=O [posaconazole]
mean Cmax at 200 mg 4 times daily relative to 400 mg twice daily [6]: 2 fold
